One test concerns melanoma cells. The following applies: cited from earlier work.
The test system of the next test is D458Med cells. Put plainly: miRNA mimic library screen, CellTiter-Glo cell viability. It is filed as cell-based. The following applies: D458Med cells, 72 hours. The method, then:
To identify miRNAs that may sensitize VCR response in MB, a high-throughput screening platform was combined with a library of 1,902 chemically synthesized human miRNA mimics. The miRNAs are arrayed in a one-miRNA-one-well format in 96-well microtiter plates. Reverse transfection of Group 3/c-Myc-amplified D458Med cells was performed in triplicate in the presence and absence of a sublethal dose of VCR, which was optimized in four MB cell lines before the screen (FIG. 2A). Cells were subjected to VCR at an IC20 lethal concentration for 72 hours after 48 hours of transfection, and cell viability was measured (FIG. 1A). Candidate miRNAs were prioritized for validation by functional and interaction assays using standard Student t-tests (with pooled variance), false discovery rate (Q=0.5%), and by using the magnitude of response (lowest 2.5 percentile of the distribution of the μVCR/μControl ratios).
miRNA mimic library screen. The primary screen was conducted using MI00200 MISSION microRNA Mimic v.17, in which miRNA mimics were arrayed in a one-miRNA-one-well format in 96-well microtiter plates. […] Cell viability was assessed using CellTiter-Glo (Promega, Madison, Wis., USA) according to the manufacturer's protocol. ath-miR-416 or cel-miR-243 was added as a negative control, whereas siRNA against PLK-1 was used as a positive control in each plate. […]

Turning to `Nc1ccccc1NC(=O)c1ccc(CNC(=O)OCc2cccnc2)cc1` [MS-275], in the test with melanoma cells, the RAD51 expression result was “decreases RAD51 expression” and the “homologous recombination (HR)” value was “blocks HR”. For `CC[C@]1(O)C[C@H]2CN(CCc3c([nH]c4ccccc34)[C@@](C(=O)OC)(c3cc4c(cc3OC)N(C=O)[C@H]3[C@@](O)(C(=O)OC)[C@H](OC(C)=O)[C@]5(CC)C=CCN6CC[C@]43[C@@H]65)C2)C1` [VCR, vincristine, reference compound], in the test with D458Med cells, the 20% inhibitory concentration was found to be 2 nM.
